Data as given in patent publication US10376520B2, “Methods for the treatment of cardiovascular disorders” (Galapagos NV, priority 2015, dated 2019).

Test system: RA patients
Experiment: [HDL] determination, Study 1 (RA patients, add-on to MTX)
Type: in vivo, human
Description: Double-blind, placebo-controlled add on study in subjects with moderately to severely active RA who have an inadequate response to methotrexate (MTX) (oral or parenteral).
595 subjects randomized to one of 6 dose regimens of Compound 1 (dosed as a [Compound 1:HCl:3H2O]) (3 dose levels administered either once or twice daily) or placebo on top of each subject's stable dose of MTX.
Compound 1 (dosed as a [Compound 1:HCl:3H2O]) is dosed for twelve weeks once daily (q.d.) (50 mg, 100 mg or 200 mg) or twice daily (b.i.d.) (25 mg, 50 mg or 100 mg); or placebo.
At Week 12, the subjects on placebo who have not achieved 20% improvement in swollen joint count (SJC66) and tender joint count (TJC68) are re-randomized automatically to receive Compound 1 (dosed as a [Compound 1:HCl:3H2O]) either at 100 mg q.d. or 50 mg b.i.d. doses in a blinded fashion; subjects on 50 mg q.d. who have not achieved 20% improvement in SJC66 and TJC68 will be assigned to 100 mg q.d. and subjects on 25 mg b.i.d. that have not achieved a 20% improvement in SJC66 and TJC68 will be assigned to 50 mg b.i.d. Subjects who switch treatment at week 12 are handled as if they discontinued at week 12 for the purpose of statistical analysis, whereas subjects in the other groups will maintain their randomized treatment until Week 24.
This assay relies on a homogeneous enzymatic colorimetric test. In the presence of magnesium ions, dextran sulfate selectively forms water-soluble complexes with LDL, VLDL and chylomicrons which are resistant to PEG-modified enzymes.
The cholesterol concentration of [HDL]-cholesterol is determined enzymatically by cholesterol esterase and cholesterol oxidase coupled with PEG to the amino groups (approx. 40%).
In the presence of peroxidase, the hydrogen peroxide generated reacts with 4-amino-antipyrine and Sodium N-(2-hydroxy-3-sulfopropyl)-3,5-dimethoxyaniline (HSDA) to form a purple-blue dye. The color intensity of this dye is directly proportional to the cholesterol concentration and is measured photometrically.
Human serum and plasma samples [HDL] determination was done on a Roche/Hitachi Cobas c 701/702 system which automatically calculate the analyte concentration of each sample. Samples containing precipitates are centrifuged before performing the assay.

[1] = continued 200 mg q.d. (N = 86), week 4
[2] = continued 200 mg q.d. (N = 86), week 8
[3] = continued 200 mg q.d. (N = 86), week 12
[4] = continued 200 mg q.d. (N = 86), week 16
[5] = continued 200 mg q.d. (N = 86), week 20
[6] = continued 200 mg q.d. (N = 86), week 24
[7] = from 25 mg b.i.d. to 50 mg b.i.d at 12 weeks (N = 17), week 1
[8] = from 25 mg b.i.d. to 50 mg b.i.d at 12 weeks (N = 17), week 2
[9] = from 25 mg b.i.d. to 50 mg b.i.d at 12 weeks (N = 17), week 4
[10] = from 25 mg b.i.d. to 50 mg b.i.d at 12 weeks (N = 17), week 8
[11] = from 25 mg b.i.d. to 50 mg b.i.d at 12 weeks (N = 17), week 12
[12] = from 25 mg b.i.d. to 50 mg b.i.d at 12 weeks (N = 17), week 24
[13] = from 50 mg q.d. to 100 mg q.d. at 12 weeks (N = 19), week 1
[14] = from 50 mg q.d. to 100 mg q.d. at 12 weeks (N = 19), week 2
[15] = from 50 mg q.d. to 100 mg q.d. at 12 weeks (N = 19), week 4
[16] = from 50 mg q.d. to 100 mg q.d. at 12 weeks (N = 19), week 8
[17] = from 50 mg q.d. to 100 mg q.d. at 12 weeks (N = 19), week 12
[18] = from 50 mg q.d. to 100 mg q.d. at 12 weeks (N = 19), week 16
[19] = from 50 mg q.d. to 100 mg q.d. at 12 weeks (N = 19), week 20
[20] = from 50 mg q.d. to 100 mg q.d. at 12 weeks (N = 19), week 24
[21] = placebo switched to 50 mg b.i.d at week 12 (N = 15), week 16
[22] = placebo switched to 50 mg b.i.d at week 12 (N = 15), week 20
[23] = placebo switched to 50 mg b.i.d at week 12 (N = 15), week 24

Structure (SMILES): O=C(Nc1nc2cccc(-c3ccc(CN4CCS(=O)(=O)CC4)cc3)n2n1)C1CC1 [Compound 1, cyclopropanecarboxylic acid {5-[4-(1,1-dioxo-thiomorpholin-4-ylmethyl)-phenyl]-[1,2,4]triazolo[1,5-a]pyridin-2yl}-amide]
- [HDL] Mean percentage CFB - 24 weeks results [1]: 19.85%
- [HDL] Median CFB - 24 weeks results [1]: 0.25 mmol/L
- [HDL] Mean CFB - 24 weeks results [2]: 0.29 mmol/L
- [HDL] Mean percentage CFB - 24 weeks results [2]: 21.85%
- [HDL] Median CFB - 24 weeks results [2]: 0.30 mmol/L
- [HDL] Mean CFB - 24 weeks results [3]: 0.27 mmol/L
- [HDL] Mean percentage CFB - 24 weeks results [3]: 21.24%
- [HDL] Median CFB - 24 weeks results [3]: 0.26 mmol/L
- [HDL] Mean CFB - 24 weeks results [4]: 0.27 mmol/L
- [HDL] Mean percentage CFB - 24 weeks results [4]: 21.14%
- [HDL] Median CFB - 24 weeks results [4]: 0.23 mmol/L
- [HDL] Mean CFB - 24 weeks results [5]: 0.30 mmol/L
- [HDL] Mean percentage CFB - 24 weeks results [5]: 24.27%
- [HDL] Median CFB - 24 weeks results [5]: 0.30 mmol/L
- [HDL] Mean CFB - 24 weeks results [6]: 0.26 mmol/L
- [HDL] Mean percentage CFB - 24 weeks results [6]: 20.78%
- [HDL] Median CFB - 24 weeks results [6]: 0.25 mmol/L
- [HDL] Mean CFB - 24 weeks results [7]: -0.05 mmol/L
- [HDL] Mean percentage CFB - 24 weeks results [7]: −1.35%
- [HDL] Median CFB - 24 weeks results [7]: -0.01 mmol/L
- [HDL] Mean CFB - 24 weeks results [8]: 0.03 mmol/L
- [HDL] Mean percentage CFB - 24 weeks results [8]: 4.08%
- [HDL] Median CFB - 24 weeks results [8]: 0.05 mmol/L
- [HDL] Mean CFB - 24 weeks results [9]: -0.01 mmol/L
- [HDL] Mean percentage CFB - 24 weeks results [9]: 1.09%
- [HDL] Median CFB - 24 weeks results [9]: 0.00 mmol/L
- [HDL] Mean CFB - 24 weeks results [10]: -0.02 mmol/L
- [HDL] Mean percentage CFB - 24 weeks results [10]: 0.59%
- [HDL] Median CFB - 24 weeks results [10]: 0.05 mmol/L
- [HDL] Mean CFB - 24 weeks results [11]: 0.04 mmol/L
- [HDL] Mean percentage CFB - 24 weeks results [11]: 5.55%
- [HDL] Median CFB - 24 weeks results [11]: 0.00 mmol/L
- [HDL] Mean percentage CFB - 24 weeks results (from 25 mg b.i.d. to 50 mg b.i.d at 12 weeks (N = 17), week 16): 7.37%
- [HDL] Mean percentage CFB - 24 weeks results (from 25 mg b.i.d. to 50 mg b.i.d at 12 weeks (N = 17), week 20): 1.50%
- [HDL] Mean CFB - 24 weeks results [12]: 0.10 mmol/L
- [HDL] Mean percentage CFB - 24 weeks results [12]: 8.10%
- [HDL] Median CFB - 24 weeks results [12]: 0.17 mmol/L
- [HDL] Mean CFB - 24 weeks results [13]: 0.02 mmol/L
- [HDL] Mean percentage CFB - 24 weeks results [13]: 2.29%
- [HDL] Median CFB - 24 weeks results [13]: 0.00 mmol/L
- [HDL] Mean CFB - 24 weeks results [14]: 0.10 mmol/L
- [HDL] Mean percentage CFB - 24 weeks results [14]: 6.63%
- [HDL] Median CFB - 24 weeks results [14]: 0.07 mmol/L
- [HDL] Mean CFB - 24 weeks results [15]: 0.07 mmol/L
- [HDL] Mean percentage CFB - 24 weeks results [15]: 5.26%
- [HDL] Median CFB - 24 weeks results [15]: 0.06 mmol/L
- [HDL] Mean CFB - 24 weeks results [16]: 0.05 mmol/L
- [HDL] Mean percentage CFB - 24 weeks results [16]: 5.77%
- [HDL] Median CFB - 24 weeks results [16]: 0.09 mmol/L
- [HDL] Mean CFB - 24 weeks results [17]: -0.02 mmol/L
- [HDL] Mean percentage CFB - 24 weeks results [17]: 2.41%
- [HDL] Median CFB - 24 weeks results [17]: -0.05 mmol/L
- [HDL] Mean CFB - 24 weeks results [18]: 0.18 mmol/L
- [HDL] Mean percentage CFB - 24 weeks results [18]: 11.43%
- [HDL] Median CFB - 24 weeks results [18]: 0.15 mmol/L
- [HDL] Mean CFB - 24 weeks results [19]: 0.13 mmol/L
- [HDL] Mean percentage CFB - 24 weeks results [19]: 8.89%
- [HDL] Median CFB - 24 weeks results [19]: 0.20 mmol/L
- [HDL] Mean CFB - 24 weeks results [20]: 0.11 mmol/L
- [HDL] Mean percentage CFB - 24 weeks results [20]: 8.29%
- [HDL] Median CFB - 24 weeks results [20]: 0.11 mmol/L
- [HDL] Mean CFB - 24 weeks results [21]: 0.08 mmol/L
- [HDL] Mean percentage CFB - 24 weeks results [21]: 10.96%
- [HDL] Median CFB - 24 weeks results [21]: 0.18 mmol/L
- [HDL] Mean CFB - 24 weeks results [22]: 0.10 mmol/L
- [HDL] Mean percentage CFB - 24 weeks results [22]: 12.63%
- [HDL] Median CFB - 24 weeks results [22]: 0.21 mmol/L
- [HDL] Mean CFB - 24 weeks results [23]: 0.10 mmol/L
- [HDL] Mean percentage CFB - 24 weeks results [23]: 10.63%
- [HDL] Median CFB - 24 weeks results [23]: 0.10 mmol/L
- [HDL] Mean percentage CFB - 24 weeks results (placebo switched to 100 mg q.d. at week 12 (N = 15), week 16): −0.14%
- [HDL] Mean percentage CFB - 24 weeks results (placebo switched to 100 mg q.d. at week 12 (N = 15), week 20): 0.95%
- [HDL] Mean percentage CFB - 24 weeks results (placebo switched to 100 mg q.d. at week 12 (N = 15), week 24): 0.14%
